Assay results taken from patent publication US11208412B2 (DAEGU-GYEONGBUK MEDICAL INNOVATION FOUNDATION, priority 2017, dated 2021).

Experiments:
Assay in all cases: Kinase selectivity, DiscoverX scanMAX Kinase assay panel (% control)
Format in all cases: binding
[1] = biological target: T1, kinases of the scanMAX Kinase assay panel (Homo sapiens, UniProt Q6ZN16); conditions: MAP3K15; 1 uM
T1 construct: purchased DiscoverX Co. (contract measurement) scanMAX Kinase assay panel
T1 sequence (Q6ZN16 1-1313): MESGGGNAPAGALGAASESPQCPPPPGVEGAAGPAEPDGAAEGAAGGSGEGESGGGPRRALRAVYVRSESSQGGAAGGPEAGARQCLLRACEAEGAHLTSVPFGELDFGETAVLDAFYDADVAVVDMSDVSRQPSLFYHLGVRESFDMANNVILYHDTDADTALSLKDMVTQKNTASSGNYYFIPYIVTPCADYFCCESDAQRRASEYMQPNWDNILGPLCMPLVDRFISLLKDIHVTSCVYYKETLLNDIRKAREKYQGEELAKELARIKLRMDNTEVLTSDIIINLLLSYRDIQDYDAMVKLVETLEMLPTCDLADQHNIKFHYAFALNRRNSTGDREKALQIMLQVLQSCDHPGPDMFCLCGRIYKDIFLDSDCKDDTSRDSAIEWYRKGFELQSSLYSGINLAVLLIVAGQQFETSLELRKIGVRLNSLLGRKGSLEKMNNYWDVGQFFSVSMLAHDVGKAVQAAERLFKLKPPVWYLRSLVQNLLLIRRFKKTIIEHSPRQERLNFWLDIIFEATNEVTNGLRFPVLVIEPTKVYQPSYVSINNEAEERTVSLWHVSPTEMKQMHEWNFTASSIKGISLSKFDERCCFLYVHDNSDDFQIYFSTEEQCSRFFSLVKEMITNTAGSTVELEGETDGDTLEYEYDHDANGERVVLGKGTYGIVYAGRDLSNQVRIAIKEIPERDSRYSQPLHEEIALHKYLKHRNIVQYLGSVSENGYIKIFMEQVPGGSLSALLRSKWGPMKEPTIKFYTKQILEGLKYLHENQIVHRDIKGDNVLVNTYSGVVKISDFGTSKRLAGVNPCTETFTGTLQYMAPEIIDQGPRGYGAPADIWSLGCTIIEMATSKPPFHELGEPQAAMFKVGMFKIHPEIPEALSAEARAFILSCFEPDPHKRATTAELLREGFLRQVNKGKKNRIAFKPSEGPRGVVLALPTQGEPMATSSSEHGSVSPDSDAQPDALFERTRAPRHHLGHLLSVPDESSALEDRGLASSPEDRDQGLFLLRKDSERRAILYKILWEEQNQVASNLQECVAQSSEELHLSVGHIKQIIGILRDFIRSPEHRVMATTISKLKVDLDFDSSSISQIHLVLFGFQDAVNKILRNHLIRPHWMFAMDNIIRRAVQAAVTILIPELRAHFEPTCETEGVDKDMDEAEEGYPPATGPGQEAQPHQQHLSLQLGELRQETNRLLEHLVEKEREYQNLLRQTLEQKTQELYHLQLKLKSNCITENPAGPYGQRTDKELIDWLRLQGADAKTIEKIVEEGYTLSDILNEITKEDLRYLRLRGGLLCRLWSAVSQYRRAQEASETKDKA
Summary of the method: (§1)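 Compounds were tested at 1 uM (in DMSO) against each panel kinase. % control was calculated as (compound − positive control)/(negative control − positive control)×100, where the positive control gives 0% and DMSO gives 100%. Activity toward a kinase was called at % control <35%.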

[2] = biological target: T2, kinases of the scanMAX Kinase assay panel (Homo sapiens, UniProt P10721, V559D); conditions: KIT(V559D); 1 uM
T2 construct: purchased DiscoverX Co. (contract measurement) scanMAX Kinase assay panel
Summary of the method: as §1

[3] = biological target: T3, kinases of the scanMAX Kinase assay panel (Homo sapiens, UniProt P78368); conditions: CSNK1G2; 1 uM
T3 construct: purchased DiscoverX Co. (contract measurement) scanMAX Kinase assay panel
Summary of the method: as §1

[4] = biological target: T4, kinases of the scanMAX Kinase assay panel (Homo sapiens, UniProt P29320); conditions: EPHA3; 1 uM
T4 construct: purchased DiscoverX Co. (contract measurement) scanMAX Kinase assay panel
T4 sequence (P29320 21-983): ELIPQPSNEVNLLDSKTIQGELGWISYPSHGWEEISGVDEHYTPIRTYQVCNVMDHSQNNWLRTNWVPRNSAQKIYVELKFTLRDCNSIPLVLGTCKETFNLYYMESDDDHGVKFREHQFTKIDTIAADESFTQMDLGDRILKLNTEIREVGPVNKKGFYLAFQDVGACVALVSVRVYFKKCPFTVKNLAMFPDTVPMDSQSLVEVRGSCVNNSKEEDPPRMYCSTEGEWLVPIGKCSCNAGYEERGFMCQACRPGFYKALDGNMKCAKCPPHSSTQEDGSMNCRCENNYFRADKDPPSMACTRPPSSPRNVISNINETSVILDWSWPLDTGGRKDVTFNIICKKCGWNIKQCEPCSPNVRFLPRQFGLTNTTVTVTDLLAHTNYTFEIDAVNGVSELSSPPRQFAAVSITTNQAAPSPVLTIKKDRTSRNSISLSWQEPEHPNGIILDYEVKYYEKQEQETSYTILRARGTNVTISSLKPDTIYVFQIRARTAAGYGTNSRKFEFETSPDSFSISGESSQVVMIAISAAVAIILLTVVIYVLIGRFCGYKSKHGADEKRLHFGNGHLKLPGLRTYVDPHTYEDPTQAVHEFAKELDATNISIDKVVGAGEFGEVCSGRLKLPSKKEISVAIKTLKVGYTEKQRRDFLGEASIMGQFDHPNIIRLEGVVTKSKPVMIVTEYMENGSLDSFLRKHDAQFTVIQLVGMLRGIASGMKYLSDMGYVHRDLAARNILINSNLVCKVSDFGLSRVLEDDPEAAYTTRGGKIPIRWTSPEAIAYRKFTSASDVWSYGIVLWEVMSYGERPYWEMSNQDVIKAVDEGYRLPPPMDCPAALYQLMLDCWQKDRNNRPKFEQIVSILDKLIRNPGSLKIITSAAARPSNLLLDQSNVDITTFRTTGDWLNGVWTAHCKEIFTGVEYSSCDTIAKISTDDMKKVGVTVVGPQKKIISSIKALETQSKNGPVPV
Summary of the method: as §1

T3 sequence (P78368 whole entry): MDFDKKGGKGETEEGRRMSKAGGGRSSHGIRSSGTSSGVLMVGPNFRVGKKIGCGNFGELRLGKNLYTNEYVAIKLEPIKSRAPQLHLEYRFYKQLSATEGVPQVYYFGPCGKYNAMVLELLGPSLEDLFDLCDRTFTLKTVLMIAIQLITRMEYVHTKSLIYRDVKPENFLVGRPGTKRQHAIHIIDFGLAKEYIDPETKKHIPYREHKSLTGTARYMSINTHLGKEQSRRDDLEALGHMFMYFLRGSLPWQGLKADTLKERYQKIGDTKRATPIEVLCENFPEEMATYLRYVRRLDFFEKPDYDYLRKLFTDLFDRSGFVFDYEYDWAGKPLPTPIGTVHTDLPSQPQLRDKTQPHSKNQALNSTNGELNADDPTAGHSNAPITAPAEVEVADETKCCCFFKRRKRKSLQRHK
T2 sequence (P10721 26-976 V559D): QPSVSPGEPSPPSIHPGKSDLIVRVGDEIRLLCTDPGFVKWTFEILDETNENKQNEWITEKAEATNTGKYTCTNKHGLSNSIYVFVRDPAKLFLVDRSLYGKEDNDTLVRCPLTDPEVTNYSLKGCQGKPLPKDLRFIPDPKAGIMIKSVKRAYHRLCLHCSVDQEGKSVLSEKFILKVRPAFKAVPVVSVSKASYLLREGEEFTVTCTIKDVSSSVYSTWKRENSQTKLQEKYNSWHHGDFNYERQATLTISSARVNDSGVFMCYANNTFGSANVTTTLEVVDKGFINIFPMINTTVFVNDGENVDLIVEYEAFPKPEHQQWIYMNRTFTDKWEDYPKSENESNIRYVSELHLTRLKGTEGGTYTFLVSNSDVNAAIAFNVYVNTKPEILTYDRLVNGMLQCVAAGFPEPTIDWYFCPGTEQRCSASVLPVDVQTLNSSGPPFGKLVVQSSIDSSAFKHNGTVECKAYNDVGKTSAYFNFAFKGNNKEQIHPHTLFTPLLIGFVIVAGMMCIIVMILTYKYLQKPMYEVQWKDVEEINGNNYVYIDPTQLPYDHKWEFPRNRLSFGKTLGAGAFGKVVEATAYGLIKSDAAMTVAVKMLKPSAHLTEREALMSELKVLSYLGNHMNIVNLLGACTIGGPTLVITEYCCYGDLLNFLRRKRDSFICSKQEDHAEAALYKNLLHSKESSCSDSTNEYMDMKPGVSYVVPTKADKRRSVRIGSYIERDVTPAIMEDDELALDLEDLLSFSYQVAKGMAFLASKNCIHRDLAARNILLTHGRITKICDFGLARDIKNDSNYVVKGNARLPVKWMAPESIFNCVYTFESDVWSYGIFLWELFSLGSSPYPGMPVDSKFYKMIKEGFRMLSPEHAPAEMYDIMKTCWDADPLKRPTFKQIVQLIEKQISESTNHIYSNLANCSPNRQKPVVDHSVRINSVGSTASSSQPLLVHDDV

In the case of `CNc1nc(Nc2ccc(C(=O)N3CCOCC3)cc2OC)nc2[nH]cc(C#N)c12` [Example 1, 2-((2-methoxy-4-(morpholine-4-carbonyl)phenyl)amino)-4-(methylamino)-7H-pyrrolo[2,3-d]pyrimidine-5-carbonitrile], the remaining binding at 1 µM [1] is reported as 35%, the remaining binding at 1 µM [2] is reported as 38% and the remaining binding at 1 µM [3] is reported as 58%. The remaining binding at 1 µM [4] was 92%.

With `CC1(Nc2nc(Nc3cnn([C@H]4CCN(C5COC5)C[C@@H]4F)c3Cl)nc3[nH]cc(C#N)c23)CC1` [Example 52, 2-((5-chloro-1-((3S,4S)-3-fluoro-1-(oxetane-3-yl)piperidine-4-yl)-1H-pyrazole-4-yl)amino)((1-methylcyclopropyl)amino)-7H-pyrrolo[2,3-d]pyrimidine-5-carbonitrile] the remaining binding at 1 µM [1] was 27%, the remaining binding at 1 µM [2] was 0% and the remaining binding at 1 µM [3] was 0.1%. It also gave a remaining binding at 1 µM [4] of 18%.

With `CCNc1nc(Nc2ccc(C(=O)N3CCC(N4CCOCC4)CC3)cc2OC)nc2[nH]cc(C(F)(F)F)c12` [Example 104, (4-((4-(ethylamino)-5-(trifluoromethyl)-7H-pyrrolo[2,3-d]pyrimidine-2-yl)amino)-3-methoxyphenyl)(4-morpholinopiperidine-1-yl)methanone] the remaining binding at 1 µM [1] was 61%, the remaining binding at 1 µM [2] was 46% and the remaining binding at 1 µM [3] was 100%. The remaining binding at 1 µM [4] was 92%.
